Results on six compounds are retold here after patent US7541368B2, “Pyrazoles as inhibitors of tumor necrosis factor” (Aventis Pharmaceuticals Inc., priority 2003, dated 2009).

Like-named read-outs stand apart in the source and are kept apart here.

One test deals with T1, Murine p38 (Mus musculus, UniProt P47811).
T1 construct: purchased CalBiochem 506122
The test can be described thus: Murine p38α standard assay against pre-activated p38 (ATF-2 phosphorylation, DELFIA). In kind it is biochemical. The conditions noted are these: murine p38, ATF-2 substrate. As for the experimental part: Compounds of the invention were tested in a conventional assay against pre-activated p38. Murine p38 enzyme activity was determined by measuring the incorporation of the γ-phosphate of ATP into ATF-2.
Human GST-tagged ATF-2 (50 μg/ml) was coated onto 96 well plates. Assay buffer (25 mM Hepes buffer, pH 7.7 containing 25 mM magnesium chloride, 2 mM dithiothreitol, 1 mM sodium orthovanadate and 100 μM ATP) was then added to each well. Compounds were dissolved in DMSO (100%) and added to the assay buffer to give a fmal DMSO concentration of 0.3%. Murine p38 (CalBiochem Catalog # 506122; 40 ng/ml) was then added and the assay continued for 1 hour.
Phosphorylated ATF-2 was quantitated using a rabbit anti-human phospho (threonine 71)-specific ATF-2 primary antibody (Cell Signaling, Catalog # 9221B) followed by a sheep europium N^1-labelled anti-rabbit IgG secondary antibody (Perkin Elmer Life Sciences Catalog # AD0105) and addition of the DELFIA enhancement solution (Perkin Elmer Life Sciences) resulting.
Fluorescence was measured using a Wallac Victor^2 1420 multi-label HTS counter (Perkin Elmer Life Sciences). The results are reported as IC50 values. Compounds were tested over the concentration range of 3×10^−10M to 3>10^−5M.

In test [1] the test system is TNF-alpha release in THP-1 cells. The test can be described thus: LPS-induced TNF-alpha release in THP-1 cells. It counts as cell-based. The following applies: Homo sapiens, THP-1, LPS-stimulated THP-1 cells. In short, it runs like this: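 Undifferentiated THP-1 monocytes (1×10^6 cells/ml, 1% FCS) preincubated 1 h at 37° C with compound (1×10^−9 to 1×10^−6 M, 0.3% DMSO), then stimulated with LPS (20 μg/ml) for 18 h. Supernatant TNF-alpha measured by sandwich ELISA (TMB read-out), interpolated from a log/log standard curve (0.125-16 ng/ml).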

Test [2] deals with T2, Inactive N-terminal His6 tagged murine P38 (Mus musculus, UniProt P47811).
T2 construct: His6 (N); made in house
T2 sequence (P47811 whole entry): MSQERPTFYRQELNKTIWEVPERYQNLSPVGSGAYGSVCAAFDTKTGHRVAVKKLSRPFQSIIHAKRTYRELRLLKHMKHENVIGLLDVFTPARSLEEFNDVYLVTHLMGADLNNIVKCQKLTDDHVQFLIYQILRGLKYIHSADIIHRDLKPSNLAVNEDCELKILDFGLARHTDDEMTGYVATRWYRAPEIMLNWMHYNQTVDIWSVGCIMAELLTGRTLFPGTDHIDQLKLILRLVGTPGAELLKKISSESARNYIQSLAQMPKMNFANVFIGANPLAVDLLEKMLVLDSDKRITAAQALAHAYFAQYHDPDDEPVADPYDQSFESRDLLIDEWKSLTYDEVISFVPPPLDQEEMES
The test can be described thus: p38 cascade assay (HTRF; inactive p38 activated by MKK-6, ATF-2 phosphorylation). It counts as biochemical. The conditions noted are these: inactive p38 preincubated with compound, then MKK-6, ATF-2, ATP; read-out: 50% inhibition in the p38 cascade assay at concentrations within the range. Background: TR-FRET usually uses a lanthanide donor and a delayed reading to cut background.

The subject of test [3] is Human HSP27 phosphorylation. The test can be described thus: HSP27 phosphorylation in LPS stimulated THP-1 cells. The conditions noted are these: Western blot, read-out: HSP-27. It counts as cell-based. As for the experimental part:
The effects of compounds on Heat Shock Protein (HSP)-27 phosphorylation in LPS stimulated THP-1 cells were examined as follows:
THP-1 cells were maintained as described for the TNF-alpha assay (1.1.).
THP-1 cells (1×10 ^6 cells/ml, total volume 1 ml) in culture medium were incubated for one hour (5% CO2, 37° C.) with fresh medium containing compounds (0.0001-30 μM) or vehicle (0.1% DMSO). LPS ([…]) was then added to the cells (except the untreated cell sample) and the incubation continued for a further 20 minutes. Cells were collected, centrifuiged and washed with ice-cold PBS buffer (free of Ca^2+ and Mg^2+). Cell lysates were prepared with 1× lysis buffer (Promega Catalog# E153A) for storage at −20° C.
HSP27 phosphorylation was determined by Western blot-enhanced chemi-luminescence (ECL-Amersham)). Briefly, cell lysates were electrophoresed on 12% Tris-glycine gels and transferred to nitrocellulose membranes. The membranes were then probed with primary rabbit antiphospho-HSP27 (ser82) antibody and secondary anti-rabbit antibody conjugated to horse raddish peroxidase. After addition of the ECL detection reagent, the film was developed and the p-HSP27 immunoreactivity quantified by densitometry.
On the technique in general: Immunoblotting shows a protein as a band on a membrane.

Setting [4] is: TNF-alpha by ELISA, read-out: THP 1 cells.
[5] abbreviates: read-out: 50% inhibition in the LPS-induced TNF-alpha release in THP-1 cells assay at concentrations within the range.

T1 sequence (P47811 whole entry): as above

Turning to `COc1ccc(C(=O)N2C3CCC2CC(Cc2ccc(NC(=O)Nc4cc(C(C)(C)C)nn4-c4ccc(C)cc4)cc2)C3)c(OC)c1` (stereo not drawn) [Example 4, 1-(5-tert-Butyl-2-p-tolyl-2H-pyrazol-3-yl)-3-{4-[8-(2,4-dimethoxy-benzoyl)-8-aza-bicyclo[3.2.1]oct-3-ylmethyl]-phenyl}-urea], the IC50 on Murine p38 was 1170 nM; in test [1] (setting [4]), 79.5 nM.

As to `COc1ccc(C(=O)N2CCC(Cc3ccc(NC(=O)Nc4cc(C(C)(C)C)nn4-c4ccc(C)cc4)cc3)CC2)c(OC)c1` [Compound A218, 1-(5-tert-Butyl-2-p-tolyl-2H-pyrazol-3-yl)-3-{4-[1-(2,4-dimethoxy-benzoyl)-piperidin-4-ylmethyl]-phenyl}-urea], the IC50 at Murine p38 is 230 nM; in test [1] (setting [4]), 15.5 nM; in test [1] (setting [5]), 10 to 500 nM; in test [2], 10 to 100 nM.

With `COc1ccc(C(=O)N2CCC(Cc3cccc(NC(=O)Nc4cc(C(C)(C)C)nn4-c4ccc(C)cc4)c3)CC2)c(OC)c1` [Compound A27, 1-(5-tert-butyl-2-p-tolyl-2H-pyrazol-3-yl)-3-{3-[1-(2,4-dimethoxy-benzoyl)-piperidin-4-ylmethyl]-phenyl}-urea], the IC50 against Murine p38 is 216 nM; in test [1] (setting [4]), 10.6 nM; in test [1] (setting [5]), 10 to 500 nM; in test [2], 10 to 100 nM; in test [3] it was 27 nM.

As for `COc1ccc(C(=O)N2C3CCC2CC(Cc2ccccc2NC(=O)Nc2cc(C(C)(C)C)nn2-c2ccc(C)cc2)C3)c(OC)c1` (stereo not drawn) [Example 5, 1-(5-tert-butyl-2-p-tolyl-2H-pyrazol-3-yl)-3-{2-[8-(2,4-dimethoxy-benzoyl)-8-aza-bicyclo[3.2.1]oct-3-ylmethyl]-phenyl}-urea], the IC50 against Murine p38 was found to be 6750 nM; in test [1] (setting [4]), 5110 nM.

`COc1ccc(C(=O)N2CCC(Cc3ccccc3NC(=O)Nc3cc(C(C)(C)C)nn3-c3ccc(C)cc3)CC2)c(OC)c1` [Compound A1113, 1-(5-tert-butyl-2-p-tolyl-2H-pyrazol-3-yl)-3-{2-[1-(2,4-dimethoxy-benzoyl)-piperidin-4-ylmethyl]-phenyl}-urea]: the IC50 against Murine p38 is 500 nM; in test [1] (setting [4]), 83 nM; in test [1] (setting [5]), 10 to 500 nM.

For `Cc1ccc(-n2nc(C(C)(C)C)cc2NC(=O)Nc2cccc(CC3CCN(C(=O)c4csc(-c5ccncc5)n4)CC3)c2)cc1` [Compound A34, 1-(5-tert-Butyl-2-p-tolyl-2H-pyrazol-3-yl)-3-{3-[1-(2-pyridin-4-yl-thiazole-4-carbonyl)-piperidin-4-ylmethyl]-phenyl}-urea], the IC50 was 10 to 500 nM in test [1] (setting [5]) and 10 to 100 nM in test [2].
